In US10189803B2, “Synthesis of therapeutic and diagnostic drugs centered on regioselective and stereoselective ring opening of aziridinium ions” (ILLINOIS INSTITUTE OF TECHNOLOGY, priority 2008, dated 2019):
“And” between values parts separate entries of the source, which are not always exact repeats. Equal values may be shown once.

Legend:
[1] = In vitro serum stability of radiolabeled C-NE3TA complexes in human serum (SE-HPLC); assay type: in vitro ADME; details: 37° C., up to 11 days
Experimental: C-NE3TA was radiolabeled with ^90Y, ^177Lu, ^203Pb, ^205/6Bi, or ^153Gd as previously described (Chong, H. S.; Milenic, D. E.; Garmestani, K.; Brady, E. D.; Arora, H.; Pfiester, C.; Brechbiel, M. W., Nucl. Med. Biol. 2006, 33, 459-67; Chong H S, Garmestani K, Bryant Jr., L H Milenic D E, Overstreet T, Birch N, Le N, Brady E D, Brechbiel M W. J. Med. Chem. 2006, 49, 2055-2062). In vitro serum stability of the radiolabeled complexes purified via ion-exchange chromatography was performed to determine if C-NE3TA labeled with the radioisotopes remained stable without transchelation or loss of their respective radionuclide in human serum. This was assessed by measuring the transfer of radionuclide from the complex to serum proteins over the course of 11 days.
In vitro stability of the radiolabeled metal complexes. The stability of the purified radiolabeled complexes was evaluated in human serum (Gemini Bioproducts, Woodland, Calif.) for up to 11 days. The serum stability of the radiolabeled complexes was assessed by measuring the transfer of the radionuclide from each complex to serum proteins using SE-HPLC methods. Radiolabeled complexes were diluted to an appropriate volume that allowed for preparation of multiple samples containing 5-10 μCi and were filter-sterilized using a Millex-GV 0.22 μm filter. This stock solution was then mixed with 1400 μL of sterile normal human serum. Aliquots (200 μL) were drawn and separated into individual tubes for subsequent analysis using aseptic technique. The samples were incubated at 37° C., and at designated intervals, subjected to analysis by SE-HPLC. Samples were loaded onto the HPLC and eluted with PBS, pH 7.4 isocratically at 1 mL/min. […] Radioactivity associated with a transfer to serum proteins generally appeared at ˜6 min.

[2] = In vivo biodistribution of radiolabeled complexes in normal athymic mice; details: for percent injected dose per gram, Blood / percent injected dose per gram, Femur / percent injected dose per gram, Heart / percent injected dose per gram, Kidney / percent injected dose per gram, Liver / percent injected dose per gram, Liver (second Liver line of Table 7) / percent injected dose per gram, Lung / percent injected dose per gram, Spleen: non-tumor bearing mice, ± SD
Experimental: The in vivo stability of the radiolabeled complexes was evaluated by performing biodistribution studies in normal athymic mice. Selected organs and the blood were harvested at five time points, 0.5, 1, 4, 8, and 24 h post-injection and the radioactivity measured. […] C-NE3TA radiolabeled with ^153Gd was almost completely cleared from blood, liver, spleen, lung, heart, and femur in less than 4 hours, and radioactivity level in the kidney was 0.16%±0.11 ID/g at 24 hour post-injection (Table 9).
In vivo biodistribution studies oh the radiolabeled metal complexes. Female athymic mice were obtained from Charles River Laboratories (Wilmington, Mass.) at 4-6 weeks of age. The pH of the radiolabeled ligands was adjusted to pH ˜7.0 with 0.5 M sodium bicarbonate (pH 10.5) and diluted in phosphate-buffered saline. The radiolabeled ligands ([…] for ^86Y, ^205/6Bi, ^177Lu, and ^203Pb) were administered to the mice in 200 μL of solution via tail vein injection. The mice (5 per data point) were sacrificed by exsanguination at 0.5, 1, 4, 8, and 24 h. Blood and the major organs were harvested, wet-weighed and the radioactivity measured in a γ-scintillation counter (1480 Wizard, Perkin Elmer). The percent injected dose per gram (% ID/g) was determined for each tissue. The values presented are the mean and standard deviation for each tissue.

## O=C(O)CNC(Cc1ccc([N+](=O)[O-])cc1)CN1CCN(CC(=O)O)CCN(CC(=O)O)CC1.[90Y] (stereo not drawn) [^90Y-C-NE3TA]
[1]
  stability in human serum (in words): no measurable loss of radioactivity
[2]; 0.50 hr
  percent injected dose per gram, Blood: 1.86 ± 1.92 % ID/g
  percent injected dose per gram, Femur: 1.19 ± 0.48 % ID/g
  percent injected dose per gram, Heart: 0.79 ± 0.52 % ID/g
  percent injected dose per gram, Kidney: 2.58 ± 1.04 % ID/g
  percent injected dose per gram, Liver: 1.65 ± 0.59 % ID/g
  percent injected dose per gram, Liver (second Liver line of Table 7): 0.48 ± 0.08 % ID/g
  percent injected dose per gram, Lung: 1.64 ± 0.99 % ID/g
  percent injected dose per gram, Spleen: 0.70 ± 0.15 % ID/g
[2]; 1.00 hr
  percent injected dose per gram, Blood: 0.76 ± 1.09 % ID/g
  percent injected dose per gram, Femur: 0.82 ± 0.26 % ID/g
  percent injected dose per gram, Heart: 0.38 ± 0.31 % ID/g
  percent injected dose per gram, Kidney: 2.00 ± 2.32 % ID/g
  percent injected dose per gram, Liver: 0.88 ± 0.59 % ID/g
  percent injected dose per gram, Liver (second Liver line of Table 7): 0.32 ± 0.07 % ID/g
  percent injected dose per gram, Lung: 1.16 ± 0.65 % ID/g
  percent injected dose per gram, Spleen: 0.47 ± 0.26 % ID/g
[2]; 4.00 hr
  percent injected dose per gram, Blood: 0.05 ± 0.05 % ID/g
  percent injected dose per gram, Femur: 0.30 ± 0.04 % ID/g
  percent injected dose per gram, Heart: 0.06 ± 0.02 % ID/g
  percent injected dose per gram, Kidney: 0.74 ± 0.15 % ID/g
  percent injected dose per gram, Liver: 0.17 ± 0.05 % ID/g
  percent injected dose per gram, Liver (second Liver line of Table 7): 0.29 ± 0.03 % ID/g
  percent injected dose per gram, Lung: 0.10 ± 0.04 % ID/g
  percent injected dose per gram, Spleen: 0.13 ± 0.08 % ID/g
[2]; 8.00 hr
  percent injected dose per gram, Blood: 0.02 ± 0.00 % ID/g
  percent injected dose per gram, Femur: 0.22 ± 0.06 % ID/g
  percent injected dose per gram, Heart: 0.05 ± 0.01 % ID/g
  percent injected dose per gram, Kidney: 0.49 ± 0.10 % ID/g
  percent injected dose per gram, Liver: 0.20 ± 0.16 % ID/g
  percent injected dose per gram, Liver (second Liver line of Table 7): 0.22 ± 0.03 % ID/g
  percent injected dose per gram, Lung: 0.16 ± 0.22 % ID/g
  percent injected dose per gram, Spleen: 0.07 ± 0.02 % ID/g
[2]; 24.00 hr
  percent injected dose per gram, Blood: 0.00 ± 0.00 % ID/g
  percent injected dose per gram, Femur: 0.08 ± 0.02 % ID/g
  percent injected dose per gram, Heart: 0.02 ± 0.01 % ID/g
  percent injected dose per gram, Kidney: 0.35 ± 0.05 % ID/g
  percent injected dose per gram, Liver: 0.10 ± 0.03 % ID/g
  percent injected dose per gram, Liver (second Liver line of Table 7): 0.17 ± 0.02 % ID/g
  percent injected dose per gram, Lung: 0.23 ± 0.36 % ID/g
  percent injected dose per gram, Spleen: 0.07 ± 0.02 % ID/g
[2]; normal athymic mice
  blood and organ clearance (in words): rapid blood and liver clearance

## O=C(O)CNC(Cc1ccc([N+](=O)[O-])cc1)CN1CCN(CC(=O)O)CCN(CC(=O)O)CC1.[153Gd] (stereo not drawn) [^153Gd-C-NE3TA]
[1]
  stability in human serum (in words): no measurable loss of radioactivity
[2]; 0.50 hr
  percent injected dose per gram, Blood: 1.41 ± 0.57 % ID/g
  percent injected dose per gram, Femur: 0.43 ± 0.14 % ID/g
  percent injected dose per gram, Heart: 0.43 ± 0.16 % ID/g
  percent injected dose per gram, Kidney: 4.28 ± 1.33 % ID/g
  percent injected dose per gram, Liver: 1.74 ± 0.69 % ID/g
  percent injected dose per gram, Lung: 0.91 ± 0.28 % ID/g
  percent injected dose per gram, Spleen: 0.50 ± 0.37 % ID/g
[2]; 1.00 hr
  percent injected dose per gram, Blood: 0.20 ± 0.08 % ID/g
  percent injected dose per gram, Femur: 1.30 ± 0.58 % ID/g
  percent injected dose per gram, Heart: 0.14 ± 0.06 % ID/g
  percent injected dose per gram, Kidney: 1.13 ± 0.12 % ID/g
  percent injected dose per gram, Liver: 0.58 ± 0.22 % ID/g
  percent injected dose per gram, Lung: 0.32 ± 0.09 % ID/g
  percent injected dose per gram, Spleen: 0.24 ± 0.05 % ID/g
[2]; 4.00 hr
  percent injected dose per gram, Blood: 0.00 ± 0.00 % ID/g
  percent injected dose per gram, Femur: 0.02 ± 0.01 % ID/g
  percent injected dose per gram, Heart: 0.01 ± 0.00 % ID/g
  percent injected dose per gram, Kidney: 0.52 ± 0.04 % ID/g
  percent injected dose per gram, Liver: 0.03 ± 0.01 % ID/g
  percent injected dose per gram, Lung: 0.03 ± 0.00 % ID/g
  percent injected dose per gram, Spleen: 0.02 ± 0.00 % ID/g
[2]; 8.00 hr
  percent injected dose per gram, Blood: 0.00 ± 0.00 % ID/g
  percent injected dose per gram, Femur: 0.02 ± 0.00 % ID/g
  percent injected dose per gram, Heart: 0.01 ± 0.00 % ID/g
  percent injected dose per gram, Kidney: 0.38 ± 0.06 % ID/g
  percent injected dose per gram, Liver: 0.02 ± 0.00 % ID/g
  percent injected dose per gram, Lung: 0.02 ± 0.00 % ID/g
  percent injected dose per gram, Spleen: 0.02 ± 0.00 % ID/g
[2]; 24.00 hr
  percent injected dose per gram, Blood: 0.00 ± 0.00 % ID/g
  percent injected dose per gram, Femur: 0.01 ± 0.00 % ID/g
  percent injected dose per gram, Heart: 0.13 ± 0.27 % ID/g
  percent injected dose per gram, Kidney: 0.16 % ID/g and 0.16 ± 0.11 % ID/g
  percent injected dose per gram, Liver: 0.02 ± 0.01 % ID/g
  percent injected dose per gram, Lung: 0.01 ± 0.01 % ID/g
  percent injected dose per gram, Spleen: 0.01 ± 0.01 % ID/g

## O=C(O)CNC(Cc1ccc([N+](=O)[O-])cc1)CN1CCN(CC(=O)O)CCN(CC(=O)O)CC1.[177Lu] (stereo not drawn) [^177Lu-C-NE3TA]
[1]
  stability in human serum (in words): no measurable loss of radioactivity
[2]; 0.50 hr
  percent injected dose per gram, Blood: 0.93 ± 0.30 % ID/g
  percent injected dose per gram, Femur: 1.06 ± 1.35 % ID/g
  percent injected dose per gram, Heart: 0.37 ± 0.08 % ID/g
  percent injected dose per gram, Kidney: 2.78 ± 0.99 % ID/g
  percent injected dose per gram, Liver: 0.82 ± 0.27 % ID/g
  percent injected dose per gram, Lung: 0.87 ± 0.22 % ID/g
  percent injected dose per gram, Spleen: 0.33 ± 0.08 % ID/g
[2]; 1.00 hr
  percent injected dose per gram, Blood: 0.31 ± 0.04 % ID/g
  percent injected dose per gram, Femur: 0.39 ± 0.13 % ID/g
  percent injected dose per gram, Heart: 0.19 ± 0.09 % ID/g
  percent injected dose per gram, Kidney: 1.57 ± 0.52 % ID/g
  percent injected dose per gram, Liver: 0.69 ± 0.20 % ID/g
  percent injected dose per gram, Lung: 0.42 ± 0.16 % ID/g
  percent injected dose per gram, Spleen: 0.28 ± 0.20 % ID/g
[2]; 4.00 hr
  percent injected dose per gram, Blood: 0.12 ± 0.02 % ID/g
  percent injected dose per gram, Femur: 0.36 ± 0.11 % ID/g
  percent injected dose per gram, Heart: 0.08 ± 0.02 % ID/g
  percent injected dose per gram, Kidney: 1.34 ± 0.09 % ID/g
  percent injected dose per gram, Liver: 0.50 ± 0.02 % ID/g
  percent injected dose per gram, Lung: 0.17 ± 0.03 % ID/g
  percent injected dose per gram, Spleen: 0.19 ± 0.07 % ID/g
[2]; 8.00 hr
  percent injected dose per gram, Blood: 0.06 ± 0.01 % ID/g
  percent injected dose per gram, Femur: 0.28 ± 0.15 % ID/g
  percent injected dose per gram, Heart: 0.10 ± 0.11 % ID/g
  percent injected dose per gram, Kidney: 1.16 ± 0.19 % ID/g
  percent injected dose per gram, Liver: 0.36 ± 0.05 % ID/g
  percent injected dose per gram, Lung: 0.15 ± 0.03 % ID/g
  percent injected dose per gram, Spleen: 0.13 ± 0.02 % ID/g
[2]; 24.00 hr
  percent injected dose per gram, Blood: 0.01 ± 0.00 % ID/g
  percent injected dose per gram, Femur: 0.38 ± 0.10 % ID/g
  percent injected dose per gram, Heart: 0.02 ± 0.01 % ID/g
  percent injected dose per gram, Kidney: 0.84 ± 0.08 % ID/g
  percent injected dose per gram, Liver: 0.31 ± 0.04 % ID/g
  percent injected dose per gram, Lung: 0.07 ± 0.03 % ID/g
  percent injected dose per gram, Spleen: 0.12 ± 0.05 % ID/g
